Legend:
[1] = Dynamic vapor sorption (gravimetric moisture sorption analysis); type: physicochemical; conditions: for hygroscopicity by moisture sorption analysis / moisture absorbed at 60% RH / moisture absorbed at 90% RH: 25° C.; for XRPD of the post moisture sorption sample: dried at 0% RH and 60° C. for 2 hours after sorption; for moisture absorbed at 60% RH / moisture absorbed at 90% RH: moisture sorption
Procedure: Gravimetric moisture sorption experiments were carried out on all materials by first holding the sample at 40% RH and 25° C. until an equilibrium weight was reached or for a maximum of four hours. The sample was then subjected to an isothermal (25° C.) adsorption scan from 40 to 90% RH in steps of 10%. The sample was allowed to equilibrate to an asymptotic weight at each point for a maximum of four hours. Following adsorption, a desorption scan from 85 to 5% RH (at 25° C.) was run in steps of −10%, again allowing a maximum of four hours for equilibration to an asymptotic weight. An adsorption scan was then performed from 0% RH to 40% RH in steps of +10% RH. The sample was then dried for no less than two hours at 60° C. and the resulting solid analyzed by XRPD.
Compound (I), Form F, was further characterized by thermal analysis (DSC and TGA), Karl Fischer titration, and DVS. […] (FIG. 5). […] (FIG. 6). The weight loss observed on TGA corresponds to the melt on DSC. […] The material absorbed 2.0 wt % moisture at 60% RH and 2.4 wt % moisture at 90% RH (FIG. 7). […] Karl Fisher analysis of the sample indicates a moisture content of 0.6 wt %, which was performed when lab humidity was around 20% RH.
Compound (I), Shifted Form F, was further characterized by thermal analysis (DSC and TGA), Karl Fischer titration, and DVS. […] (FIG. 9). […] (FIG. 10). […] The material absorbs 2.4 wt % moisture at 60% RH and 2.9 wt % moisture at 90% RH (FIG. 11). […] The water content by KF is higher than the weight loss detected by TGA. It is possible that some moisture was slowly carried away by nitrogen stream and not reflected in the weight loss attributed to the thermal event. Characterization of shifted Form F was performed when lab humidity was between 50-60% RH.

[2] = Drying study / ambient exposure, form followed by XRPD; type: physicochemical
Procedure: To understand a change of Form F to shifted Form F, a drying study was conducted wherein a variable hydrate having shifted Form F was dried overnight under vacuum at 50° C. […] This study confirms that Form F absorbs moisture from the atmosphere and depending upon the relative humidity of the environment either remains Form F or converts to Shifted Form F.
XRPD patterns were collected with a PANalytical CubiX-Pro XRD diffractometer using an incident beam of Cu radiation produced using an Optix long, fine-focus source. An elliptically graded multilayer mirror was used to focus CuKα X-rays (1.54 Å) through the specimen and onto the detector. Prior to the analysis, a silicon specimen (NIST SRM 640d) was analyzed to verify the observed position of the Si 111 peak is consistent with the NIST-certified position. A specimen of the sample was sandwiched between 3-μm-thick films and analyzed in transmission geometry. A beam-stop, short antiscatter extension, and antiscatter knife edge were used to minimize the background generated by air. Soller slits for the incident and diffracted beams were used to minimize broadening from axial divergence. Diffraction patterns were collected using a scanning position-sensitive detector (X'Celerator) located 240 mm from the specimen and Data Collector software v. 2.2b. The tube power was set to 45 kV and 40 mA. […]

SMILES	hygroscopicity by moisture sorption analysis [1]	XRPD of the post moisture sorption sample [1]	moisture absorbed at 60% RH [1]	moisture absorbed at 90% RH [1]	form after exposure to ambient conditions ([2]; dried material exposed to ambient conditions for 5 days)	XRPD of the dried solid ([2]; dried overnight under vacuum at 50° C.)
CCOC(C(=O)c1ccc(-c2cc(OC)c(Cl)c(OC)c2)o1)c1ccc(-c2nnc(C)s2)cc1 (stereo not shown) [Form F, 1-(5-(4-chloro-3,5-dimethoxyphenyl)furan-2-yl)-2-ethoxy-2-(4-(5-methyl-1,3,4-thiadiazol-2-yl)phenyl)ethanone]	moderately hygroscopic	consistent with Form F	2.0 wt %	2.4 wt %	converted back to shifted Form F	
CCOC(C(=O)c1ccc(-c2cc(OC)c(Cl)c(OC)c2)o1)c1ccc(-c2nnc(C)s2)cc1 (stereo not shown) [shifted Form F, 1-(5-(4-chloro-3,5-dimethoxyphenyl)furan-2-yl)-2-ethoxy-2-(4-(5-methyl-1,3,4-thiadiazol-2-yl)phenyl)ethanone]	moderately hygroscopic	consistent with shifted Form F	2.4 wt %	2.9 wt %		consistent with Form F
